Measured values reported in patent publication US20070072938A1, “DRONABINOL TREATMENT OF DELAYED CHEMOTHERAPY-INDUCED NAUSEA AND VOMITING” (priority 2005, published 2007).
Marks after values point to notes of the source that are not given here.

Columns and labels:
[1] = test system: patients receiving moderately to highly emetogenic chemotherapy; test: Other analyses: rescue antiemetic use and compliance with study medication; format: in vivo, human
Method: (§1) A kit of open-label antiemetics (metoclopramide 10 mg, prochlorperazine 5 mg, and prochlorperazine 25-mg suppository) was provided to the study participants for use on Days 1 through 8 as rescue medications to treat intolerable nausea and vomiting and/or retching after using the maximum dose of study medication at any dosing interval. Patients recorded the use of rescue medication and returned the unused portion of the kit.
For the primary efficacy parameter, a logistic regression model was used for the primary analysis and a Cochran-Mantel-Haenszel (“CMH”) test stratified by pooled center was performed as a supportive analysis. Continuous secondary efficacy parameters were analyzed for all pairwise comparisons using a 2-way analysis of variance (“ANOVA”) with treatment and pooled center as fixed factors. For data that was not normally distributed, data were ranked, and an ANOVA was performed on the ranked scores. Categorical secondary efficacy parameters were analyzed for all pairwise comparisons using the CMH test stratified by pooled center. No adjustment for multiple comparisons was performed for the secondary efficacy parameters. No interactions were examined for the secondary efficacy parameters. Compliance with study medication was defined as taking all doses of supplied medication and was measured throughout the trial.

[2] = test system: patients receiving moderately to highly emetogenic chemotherapy; test: Safety and tolerability: treatment-emergent adverse events (safety population)
Method: (§2) A randomized, double-blind, placebo-controlled, parallel-group study evaluating the antiemetic efficacy and tolerability of oral dronabinol alone, dronabinol in combination with ondansetron, ondansetron alone, and placebo in patients receiving moderate to high emetogenic chemotherapy was conducted. All patients received dexamethasone 20 mg and ondansetron 16 mg intravenously prechemotherapy. […] On Day 2, placebo or fixed doses of 10 mg dronabinol, 16 mg ondansetron, or dronabinol plus ondansetron were administered. On Days 3-5, patients received placebo, flexible doses of 10-20 mg dronabinol, 8-16 mg ondansetron, or dronabinol plus ondansetron. Rescue antiemetics were permitted after using the maximum dose of medication. The primary efficacy variable was total response (“TR”) to study medication (TR=nausea intensity<5 mm on a 100-mm visual analog scale, no vomiting/retching, no rescue antiemetic). Secondary efficacy parameters included nausea status and intensity, as well as episodes of vomiting/retching. […] TR and presence/absence of nausea were evaluated using the Fisher's Exact Test. Tolerability was assessed by physical examination and adverse events.
AEs and concomitant medications were also assessed.

[3] = test system: patients receiving moderately to highly emetogenic chemotherapy; test: ECOG (wellness) and McCorkle Symptom Distress Scale (QoL) assessment; format: in vivo, human
Method: The secondary efficacy analysis included patients who took rescue medication. However, analyses were conducted only on data collected before the use of any rescue medication. The secondary efficacy assessments were complete response, presence or absence of nausea, episodes of vomiting and/or retching, duration of nausea and vomiting and/or retching, intensity of nausea measured by VAS, ECOG (wellness), and QoL. Complete response for vomiting/retching was defined as no vomiting/retching, intensity of nausea of ≦30 mm on the VAS, and no use of rescue therapy. The presence or absence of nausea, episodes of vomiting and/or retching, and duration of nausea and vomiting and/or retching were assessed from daily patient telephone diary entries completed each morning to report the previous day. The patient was prompted through the Interactive Voice Response System to use the standard VAS to assess nausea intensity. The ECOG (wellness) assessment was clinician administered at screening and again on Day 6, Day 7, or Day 8 (or early termination). The possible range of the ECOG assessment was 0 to 4, where 0 was normal activity with no limitations and 4 was very sick, rarely out of bed.
The McCorkle Symptom Distress Scale (QoL assessment) evaluation was conducted on Day 1 (postchemotherapy) and again on Day 6, Day 7, or Day 8 (or early termination). […]

[4] = test system: patients receiving moderately to highly emetogenic chemotherapy; test: Randomized, double-blind, placebo-controlled study: antiemetic efficacy in delayed CINV (Days 2-5); format: in vivo, human
Method: as §2
All efficacy analyses were based on the ITT population.
This was a randomized, double-blind, placebo-controlled, parallel-group, 5-day study to evaluate the antiemetic efficacy and safety of oral dronabinol (sole under the trade name, Marinol®) alone, and in combination with ondansetron (sole under the trade name, Zofran®), versus ondansetron alone in patients receiving moderately to highly emetogenic chemotherapy. The investigator obtained written approval from the Institutional Review Board, and the study was conducted in accordance with the Declaration of Helsinki.
Patients who entered the study were to undergo cancer chemotherapy with moderately to highly emetogenic agents on Day 1 when they were randomized into 1 of 4 treatment groups: dronabinol alone (Group Dronabinol), ondansetron alone (Group Ondansetron), combination therapy with dronabinol and ondansetron (Group Dronabinol/Ondansetron), or placebo (Group Placebo). All patients received a standard prechemotherapy regimen of dexamethasone (20 mg) and ondansetron (16 mg). […] Placebo patients received matching placebo prechemotherapy and postchemotherapy on Day 1.
as §1
Each morning, patients recorded the number of vomiting and/or retching episodes in the previous day. In addition, the patient recorded the daily presence or absence of nausea and its duration.
The primary efficacy measure was the incidence of total response to treatment following administration of moderately to highly emetogenic chemotherapeutic agents. Total response was defined as no vomiting and/or retching, intensity of nausea <5 mm on a 100-mm Visual Analog Scale (VAS scale 0-100 mm; 0 mm=no nausea; 100 mm=intractable nausea), and no use of rescue medication.
The secondary efficacy analysis included patients who took rescue medication. However, analyses were conducted only on data collected before the use of any rescue medication. The secondary efficacy assessments were complete response, presence or absence of nausea, episodes of vomiting and/or retching, duration of nausea and vomiting and/or retching, intensity of nausea measured by VAS, ECOG (wellness), and QoL. Complete response for vomiting/retching was defined as no vomiting/retching, intensity of nausea of ≦30 mm on the VAS, and no use of rescue therapy.

## CCCCCc1cc(O)c2c(c1)OC(C)(C)[C@@H]1CCC(C)=C[C@@H]21 [Dronabinol, delta-9-tetrahydrocannabinol]
[1]; Day 5
  patients who required rescue medicine: 12%
[1]; whole study
  Rescue antiemetics used (patients): 24%
[2]; Safety Population
  Adverse event: Asthenia: 2 (12) n (%)
  Adverse event: Chest pain: 1 (6) n (%)
  Adverse event: Constipation: 1 (6) n (%)
  Adverse event: Diarrhea: 4 (24) n (%)
  Adverse event: Dizziness: 1 (6) n (%)
  Adverse event: Fatigue: 2 (12) n (%)
  Adverse event: Headache: 0 n (%)
  Adverse event: Hyperglycemia: 0 n (%)
  Adverse event: Insomnia: 0 n (%)
  Patients who permanently discontinued study medication because of a TEAE: 1 (6) n (%)
  Patients with at least 1 SAE: 2 (12) n (%)
  Patients with at least 1 TEAE: 14 (82) n (%)
  Patients with at least 1 TEAE leading to dose reduction: 0 n (%)
  Patients with at least 1 severe TEAE: 2 (12) n (%)
[2]; result in words
  incidence of CNS-related events: low and few CNS-related AEs
  tolerability: well tolerated
[3]; Day 1 versus Day 6, 7 or 8, lower values = less distress
  McCorkle Symptom Distress Scale (QoL), mean change from baseline: −2.0±4.2
[3]; result in words
  ECOG (wellness) change after treatment: Shifts in ECOG from 1 to 0 (improvement)
[4]; Day 2
  Duration of nausea: 3-6 h: 0 n (%)
  Duration of nausea: 6-8 h: 1 (8) n (%)
  Duration of nausea: 8-10 h: 0 n (%)
  Duration of nausea: <3 h: 1 (8) n (%)
  Duration of nausea: >10 h: 2 (15) n (%)
  Duration of nausea: No nausea reported: 9 (69) n (%)
  Observed Duration of Vomiting/Retching (mean ± SD): 0.00 ± 0.00 h
[4]; Day 3
  Duration of nausea: 3-6 h: 0 n (%)
  Duration of nausea: 6-8 h: 2 (17) n (%)
  Duration of nausea: 8-10 h: 0 n (%)
  Duration of nausea: <3 h: 2 (17) n (%)
  Duration of nausea: >10 h: 1 (8) n (%)
  Duration of nausea: No nausea reported: 7 (58) n (%)
  Observed Duration of Vomiting/Retching (mean ± SD): 0.41 ± 1.36 h
[4]; Day 4
  Duration of nausea: 3-6 h: 0 n (%)
  Duration of nausea: 6-8 h: 0 n (%)
  Duration of nausea: 8-10 h: 0 n (%)
  Duration of nausea: <3 h: 1 (11) n (%)
  Duration of nausea: >10 h: 0 n (%)
  Duration of nausea: No nausea reported: 8 (89) n (%)
  Observed Duration of Vomiting/Retching (mean ± SD): 0.00 ± 0.01 h
[4]; Day 5
  Duration of nausea: 3-6 h: 0 n (%)
  Duration of nausea: 6-8 h: 0 n (%)
  Duration of nausea: 8-10 h: 0 n (%)
  Duration of nausea: <3 h: 1 (13) n (%)
  Duration of nausea: >10 h: 0 n (%)
  Duration of nausea: No nausea reported: 7 (88) n (%)
  Observed Duration of Vomiting/Retching (mean ± SD): 0.00 ± 0.00 h
[4]; Days 2-5
  Absence of nausea: 71^† %
  Absence of nausea (frequency/n): (10/14)
  Mean vomiting/retching: 0.2 episodes/day
  Total response (frequency/n): (7/13)
[4]; Days 2-5, 100-mm VAS
  Mean nausea intensity: 10.1^† mm
[4]; Days 2-5, listed as dronabinol
  Absence of nausea: 71%
[4]; Days 2-5 LOCF end point, TR = nausea <5 mm VAS, no vomiting/retching, no rescue
  Total response: 54%
[4]; LOCF End Point (Days 2-5)
  Complete Response: No: 5 (38) n (%)
  Complete Response: Yes: 8 (62) n (%)
[4]; result in words
  antiemetic effect for delayed CINV: comparable with ondansetron
